Test results published in patent US11077139B2, “Combination of an arsenic compound and at least one retinoid for treating acute myeloid leukemia” (INSERM (Institut National de la Sante et de la Recherche …, priority 2013, dated 2021).

Key:
mutant NPM-1 = experiment: Western blot for NPM-1 and mutated NPM-1; assay type: cell-based
Description: Cells were solubilized at 4° C. in lysis buffer. […] Blots were incubated with specific antibodies, washed and proteins were visualized using the ECL chemiluminescence system (Santa Cruz, Germany). The following antibodies were used; monoclonal anti-wt NPM-1 (Abnova, Abcam), polyclonal anti-mutated NPM-1 (Abnova), anti-actin (Santa-cruz, Germany) and anti-GAPDH (Abnova).

[1] = tested on: OCI-AML3 cells (mutated NPM-1); assay type: cell-based; details: addition of the proteasome inhibitor
Description: Cells were seeded at a density of 2×10^5/ml. Primary AML cells (from either peripheral blood or BM) were extracted following ficoll separation and cultured in MEM-α supplemented with 20% FBS and antibiotics. […] Cell growth was assessed using the CellTiter 96® cell proliferation assay kit (Promega Corp., Madison, Wis., USA) or by trypan blue dye assay.
Proliferation experiments on cell lines were repeated at least three times. Data are reported as the mean+/−standard error. […] CI was used to assess synergistic effects (CI<1), additive effects (CI=1) or antagonistic effects (CI>1). Two statistical tests were performed to validate significance: the t-test and the one-way analysis of variance (ANOVA) test. *, ** and *** indicate p values≤0.05; 0.01 and 0.001, respectively. p-values less than 0.05 were considered significant.

In the case of interferon alpha, the “effect of pre-treatment on arsenic-induced degradation of mutant NPM-1” value (mutant NPM-1; data not shown) is reported as “significantly accelerated”.

With `CC(C)C[C@H](NC(=O)[C@H](Cc1ccccc1)NC(=O)c1cnccn1)B(O)O` [PS-341] the “effect on RA/arsenic-induced growth arrest” value [1] was “reversed” and the “effect on RA/arsenic-induced NPM-1 degradation” value (mutant NPM-1; addition of the proteasome inhibitor) was “reversed”.
